# Laboratory results taken from article PMC7010297, “How the initiating ribosome copes with ppGpp to translate mRNAs” (PLoS Biology, 2020).
# Values joined by “and” are separate entries in the source; they are usually repeats but may differ in a detail not shown here. Equal values may be shown once.
# Key:
# [1] = target: T1, 70S pre-IC (50S joining to 30S IC) (Escherichia coli, UniProt P0A705); assay: 70S pre-IC formation by light scattering, stopped-flow; assay type: biochemical; set-up: K1, best-fit value / k2, best-fit value: unit not given here; conditions: for kfast (s-1) Avg: light scattering
# T1 construct: 6xHis (N); made in house
# Experimental: (§1) Continuous lines indicate nonlinear regression fittings with a quadratic equation. Three measurements were performed; mean and standard deviation are plotted (S1 Data). (B) as (A) to measure the concentration dependence for each tested guanosine nucleotide at constant IF2 (1 μM). […] Continuous lines show best fits using exponential functions. (D) Formation of 70S IC as measured by Bpy-tRNAi accommodation in the P site of the ribosome; 0.1 μM 30S ICs were formed with Bpy-tRNAi and rapidly mixed with 0.3 μM 50S subunits on a stopped-flow apparatus as described in [14]. Colors are as in (C). Continuous lines show best fits using an exponential function for a single reaction step. Each stopped-flow trace results from the mean of 5 to 7 replicates.
# (A) Scheme of 70S IC formation. […] Time traces were analyzed by nonlinear regression with exponential terms. […] Formation of 70S IC, as measured by Bpy-tRNAi accommodation in the absence (F) or presence of 200 μM ppGpp (G). Time traces were analyzed by nonlinear regression with one exponential term. […] Continuous lines show best fits using an exponential function for a single reaction step. All time traces are mean values of 5 to 10 replicates. Bar graphs show mean and standard errors (error bars) derived from the nonlinear regression fitting (D,E,H,I) (S1 Data).
# To measure 70S pre-IC formation, a SX-20 stopped-flow instrument (Applied Photophysics, Leatherhead, UK) was set up for LS recording with an excitation wavelength of 430 nm. Scattered light was measured at an angle of 90° without a filter. Pseudo first-order conditions were approximated by using ≥3-fold excess of 50S subunits over 30S ICs; 0.2 μM 30S ICs were rapidly mixed in the instrument with 0.6 μM 50S at 25 °C. Bpy-tRNAi accommodation was measured essentially as described elsewhere. Briefly, 0.2 μM 30S ICs were formed using Bpy-tRNAi and rapidly mixed with 0.6 μM 50S at 25 °C. Fluorescence was excited at 470 nm and measured after a 495-nm longpass filter. Individual traces (6–11 traces) were averaged, and the resulting kinetic curve was approximated by single (F = A0 + A1*exp (-kapp1*t)) or double (F = A0 + A1*exp (-kapp1*t) + A2*exp (-kapp2*t)) exponential fit using Graphpad Prism 6.0 software (GraphPad, San Diego, California).
# IF2-bound 30S IC = target: T2, IF2-bound 30S IC (Escherichia coli, UniProt P0A705); assay: 30S IC formation by MST, guanosine nucleotide titration; assay type: binding; conditions: for MST Average / MST Replicates (a.u.): Fig 2B;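 as to MST Average: lower thermophoresis signal means Bpy-tRNAi dissociation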;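 as to MST Replicates (a.u.): lower thermophoresis signal means Bpy-tRNAi dissociation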
# T2 construct: 6xHis (N); made in house
# Source text: To monitor the interaction of initiator tRNA and 30S ribosomal subunits, we used Microscale Thermophoresis (MST) with a fluorescently labelled initiator tRNA (Bpy-tRNAi) (Fig 1B). MST allows to measure fluorescence in a constrained space. Changes on the readout derive from molecular drifts resulting from small thermal equilibrium perturbations. Upon equilibrium perturbations, the patterns of Bpy-tRNAi migration away from the observation space are related to bound and unbound states (Fig 1B). […] On the contrary, a decrease in thermophoresis indicated the dissociation of Bpy-tRNAi. The relation between fluorescence measured at both equilibriums (Ff to Fi, after and prior to the perturbation, respectively) as a function of ligand concentration allowed to determine dissociation constants of the interaction (Fig 1C).
# as §1
# MST was calculated from the respective fluorescence time dependencies (S3 Fig). […] Symbols as in (B). […] Continuous lines indicate nonlinear regression fittings with quadratic (B and E) or same-site competition (G) functions. Three measurements were performed; mean and standard deviations are plotted (S1 Data).
# [2] = mInfA, fit Y=A0+A1*exp(-K1*x)+k2*x
# [3] = mMF1, fit Y=A0+A1*exp(-K1*x)+k2*x
# [4] = mTufA, fit Y=A0+A1*exp(-K1*x)+k2*x
# T1 sequence (P0A705 whole entry, looked up): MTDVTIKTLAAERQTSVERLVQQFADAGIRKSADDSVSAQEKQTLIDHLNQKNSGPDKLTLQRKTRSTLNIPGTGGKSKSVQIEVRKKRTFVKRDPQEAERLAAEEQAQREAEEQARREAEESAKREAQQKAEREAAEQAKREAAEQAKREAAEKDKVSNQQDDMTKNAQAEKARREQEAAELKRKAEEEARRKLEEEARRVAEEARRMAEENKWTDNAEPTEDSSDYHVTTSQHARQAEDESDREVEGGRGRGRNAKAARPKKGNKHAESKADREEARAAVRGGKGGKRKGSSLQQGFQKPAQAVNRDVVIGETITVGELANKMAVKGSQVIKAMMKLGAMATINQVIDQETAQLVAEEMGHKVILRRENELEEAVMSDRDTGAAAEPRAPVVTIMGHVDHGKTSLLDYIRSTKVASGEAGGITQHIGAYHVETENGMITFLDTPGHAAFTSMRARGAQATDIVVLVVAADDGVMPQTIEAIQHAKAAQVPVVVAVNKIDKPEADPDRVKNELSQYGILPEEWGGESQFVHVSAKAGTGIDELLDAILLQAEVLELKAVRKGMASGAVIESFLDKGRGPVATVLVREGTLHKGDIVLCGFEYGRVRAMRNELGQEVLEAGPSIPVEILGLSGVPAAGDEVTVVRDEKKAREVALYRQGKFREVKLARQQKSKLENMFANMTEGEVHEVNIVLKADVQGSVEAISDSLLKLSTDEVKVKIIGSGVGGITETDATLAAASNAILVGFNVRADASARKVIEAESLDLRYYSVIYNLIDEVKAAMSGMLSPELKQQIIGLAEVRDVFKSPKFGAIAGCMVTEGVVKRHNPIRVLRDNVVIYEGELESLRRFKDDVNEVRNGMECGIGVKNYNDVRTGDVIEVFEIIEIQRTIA
# T2 sequence (P0A705 whole entry, looked up): as above
smiles,measurement,setting,value
"Nc1nc2c(ncn2[C@@H]2O[C@H](COP(=O)(O)OP(=O)(O)OP(=O)(O)O)[C@@H](O)[C@H]2O)c(=O)[nH]1 [GTP, guanosine triphosphate]",kapp of 70S pre-IC formation (LS),"[1]; 30S complexes formed with 0.2 mM nucleotide, mixed with 50S subunits",2.9 ± 0.3 s^–1
same,"A0, best-fit value",[1]; [2],1.08
same,"K1, best-fit value",[1]; [2],1.97
same,"k2, best-fit value",[1]; [2],0.0017 and 0.00173
same,"A0, best-fit value",[1]; [3],1.05
same,"A1, best-fit value",[1]; [3],-0.035
same,"K1, best-fit value",[1]; [3],1.98
same,"k2, best-fit value",[1]; [3],0.000317
same,LS amplitude (a.u.) Avg,[1]; mRNA mInfA,0.062 a.u.
same,LS amplitude (a.u.) Avg,[1]; mRNA mMF1,0.035 a.u.
same,kfast (s-1) Avg,[1]; mRNA mMF1,1.98 s⁻¹
same,LS amplitude (a.u.) Avg,[1]; mRNA mTufA,0.083 a.u.
same,kfast (s-1) Avg,[1]; mRNA mTufA,5.20 s⁻¹
same,"A0, best-fit value",[1]; [4],1.11
same,"K1, best-fit value",[1]; [4],5.20
same,"k2, best-fit value",[1]; [4],0.000653
same,MST Average,IF2-bound 30S IC; nucleotide 0.005 µM,931.90 a.u.
same,MST Replicates (a.u.),"IF2-bound 30S IC; nucleotide 0.005 µM, constant IF2 (1 μM)",929.16 a.u. and 932.86 a.u. and 933.70 a.u.
same,MST Average,IF2-bound 30S IC; nucleotide 0.01 µM,935.48 a.u.
same,MST Replicates (a.u.),IF2-bound 30S IC; nucleotide 0.01 µM,935.39 a.u. and 935.49 a.u. and 935.55 a.u.
same,MST Average,IF2-bound 30S IC; nucleotide 0.02 µM,931.90 a.u.
same,MST Replicates (a.u.),IF2-bound 30S IC; nucleotide 0.02 µM,930.17 a.u. and 932.09 a.u. and 933.42 a.u.
same,MST Average,IF2-bound 30S IC; nucleotide 0.04 µM,934.94 a.u.
same,MST Replicates (a.u.),IF2-bound 30S IC; nucleotide 0.04 µM,935.42 a.u. and 934.45 a.u. and 934.96 a.u.
same,MST Average,IF2-bound 30S IC; nucleotide 0.08 µM,940.63 a.u.
same,MST Replicates (a.u.),IF2-bound 30S IC; nucleotide 0.08 µM,937.42 a.u. and 941.79 a.u. and 942.68 a.u.
same,MST Average,IF2-bound 30S IC; nucleotide 0.16 µM,949.92 a.u.
same,MST Replicates (a.u.),IF2-bound 30S IC; nucleotide 0.16 µM,950.95 a.u. and 949.65 a.u. and 949.17 a.u.
same,MST Average,IF2-bound 30S IC; nucleotide 0.31 µM,960.63 a.u.
same,MST Replicates (a.u.),IF2-bound 30S IC; nucleotide 0.31 µM,959.49 a.u. and 961.54 a.u. and 960.87 a.u.
same,MST Average,IF2-bound 30S IC; nucleotide 0.63 µM,975.44 a.u.
same,MST Replicates (a.u.),IF2-bound 30S IC; nucleotide 0.63 µM,975.52 a.u. and 975.43 a.u. and 975.39 a.u.
same,MST Average,IF2-bound 30S IC; nucleotide 1.25 µM,984.37 a.u.
same,MST Replicates (a.u.),IF2-bound 30S IC; nucleotide 1.25 µM,979.99 a.u. and 986.37 a.u. and 986.76 a.u.
same,MST Average,IF2-bound 30S IC; nucleotide 2.50 µM,1006.59 a.u.
same,MST Replicates (a.u.),IF2-bound 30S IC; nucleotide 2.50 µM,1003.01 a.u. and 1008.37 a.u. and 1008.39 a.u.
same,MST Average,IF2-bound 30S IC; nucleotide 5.00 µM,1020.42 a.u.
same,MST Replicates (a.u.),IF2-bound 30S IC; nucleotide 5.00 µM,1016.52 a.u. and 1022.52 a.u. and 1022.21 a.u.
same,MST Average,IF2-bound 30S IC; nucleotide 10.00 µM,1023.06 a.u.
same,MST Replicates (a.u.),IF2-bound 30S IC; nucleotide 10.00 µM,1019.11 a.u. and 1024.56 a.u. and 1025.50 a.u.
same,MST Average,IF2-bound 30S IC; nucleotide 20.00 µM,1004.40 a.u.
same,MST Replicates (a.u.),IF2-bound 30S IC; nucleotide 20.00 µM,999.60 a.u. and 1006.70 a.u. and 1006.89 a.u.
same,Kd,"IF2-bound 30S IC; KD of GTP for the 30S IC, 30S IC programmed with mInfA",1900 ± 200 nM
